Assay results published in US20260226056A1, “SUBSTITUTED 1H-PYRAZOLE-4-CARBOXAMIDES AS SARM1 INHIBITORS” (DISARM THERAPEUTICS, INC., priority 2023, published 2026).

Biological target: T1, hSARM1 (Homo sapiens, UniProt Q6SZW1)
T1 construct: This assay makes use of full length SARM1, which encompasses the ARM, SAM and TIR domains; made in house; host or cells: NRK1-HEK293T cells (transient transfection; cleared lysate used as enzyme)
T1 sequence (Q6SZW1 28-724): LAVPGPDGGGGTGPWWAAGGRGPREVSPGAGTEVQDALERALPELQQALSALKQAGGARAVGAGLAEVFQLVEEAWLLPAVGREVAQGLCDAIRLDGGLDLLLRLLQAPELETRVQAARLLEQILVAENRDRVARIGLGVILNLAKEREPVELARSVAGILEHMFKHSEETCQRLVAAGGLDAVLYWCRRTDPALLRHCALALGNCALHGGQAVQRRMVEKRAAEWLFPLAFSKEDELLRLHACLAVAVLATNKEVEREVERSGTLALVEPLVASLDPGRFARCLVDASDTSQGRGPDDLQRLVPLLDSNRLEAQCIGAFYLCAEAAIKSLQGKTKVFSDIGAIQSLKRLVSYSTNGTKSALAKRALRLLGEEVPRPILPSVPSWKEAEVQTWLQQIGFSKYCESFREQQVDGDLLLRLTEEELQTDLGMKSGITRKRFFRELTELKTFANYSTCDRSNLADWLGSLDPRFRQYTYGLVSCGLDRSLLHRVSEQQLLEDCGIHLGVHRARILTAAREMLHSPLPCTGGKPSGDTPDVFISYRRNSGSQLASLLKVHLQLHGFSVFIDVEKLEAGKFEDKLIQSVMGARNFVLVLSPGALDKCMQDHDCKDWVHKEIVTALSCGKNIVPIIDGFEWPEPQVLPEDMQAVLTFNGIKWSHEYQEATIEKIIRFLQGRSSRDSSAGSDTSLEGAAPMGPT
Experiment: ARM-SAM-TIR SARM1 IC50 Assay (NADase activity, NAD+ cleavage, RapidFire MS)
Format: biochemical
Settings: ARM-SAM-TIR lysate 5 μg/mL, 2 hrs. pre-incubation with compound, 5 μM NAD+, 2 hrs. incubation
Experimental: This describes an assay of ARM-SAM-TIR NADase activity and use of this assay to measure the efficacy of compounds of the present invention to block SARM1 mediated NAD+ cleavage. This assay was optimized in such a way as to characterize the efficacy of the compounds of the present invention to inhibit SARM1 activity and to calculate an IC50 value for each compound. This assay makes use of full length SARM1, which encompasses the ARM, SAM and TIR domains.
NRK1-HEK293T cells were seeded onto 150 cm^2 plates at 20×10^6 cells per plate. The next day, the cells were transfected with 15 μg ARM-SAM-TIR expression plasmid (SEQ ID NO: 1 as disclosed in WO 2019/236879, Pages 77-81; Paragraph) [0310]).
The cultures were supplemented with 1 mM NR at time of transfection to minimize toxicity from ARM-SAM-TIR overexpression. Forty-eight hours after transfection, cells were harvested, pelleted by centrifugation at 1,000 rpm (Sorvall ST 16R centrifuge, Thermo Fisher), and washed once with cold PBS (0.01 M phosphate buffered saline NaCl 0.138 M; KCl 0.0027 M; pH 7.4). The cells were resuspended in PBS with protease inhibitors (Complete™ protease inhibitor cocktail, Roche product #11873580001) and cell lysates were prepared by sonication (Branson Sonifer 450, output=3, 20 episodes of stroke). The lysates were centrifuged (12,000×g for 10 min at 4° C.) to remove cell debris and the supernatants (containing ARM-SAM-TIR protein) were stored at −80° C. for later use in the in vitro ARM-SAM-TIR NADase assay (see below). Protein concentration was determined by the Bicinchoninic (BCA) method and used to normalize lysate concentrations.
The enzymatic assay was performed in a 384-well polypropylene plate in Dulbecco's PBS buffer in a final assay volume of 20 μL. ARM-SAM-TIR lysate with a final concentration of 5 μg/mL was pre-incubated with the respective compound at 1% DMSO final assay concentration over 2 hrs. at room temperature. The reaction was initiated by addition of 5 μM final assay concentration of NAD+ as substrate. After a 2 hrs. ambient temperature incubation, the reaction was terminated with 40 μL of stop solution of 7.5% trichloroacetic acid in acetonitrile. The NAD+ and ADPR concentrations were analyzed by a RapidFire High Throughput Mass Spectrometry System (Agilent Technologies, Santa Clara, CA) using an API4000 triple quadrupole mass spectrometer (AB Sciex Framingham, MA).
Compounds having an activity designated as “A” provided an IC50<50 nM; compounds having an activity designated as “B” provided an IC50 51-100 nM; compounds having an activity designated as “C” provided an IC50 101-500 nM; compounds having an activity designated as “D” provided an IC50 501-1000 nM; compounds having an activity designated as “E” provided an IC50>1000 nM.

IC50: > 1000 nM
SMILES: O=C1NCN(C(=O)CCc2ccc(Cl)nc2)c2[nH]nc(-c3ccncc3)c21 [Example 28, 7-(3-(6-Chloropyridin-3-yl)propanoyl)-3-(pyridin-4-yl)-1,5,6,7-tetrahydro-4H-pyrazolo[3,4-d]pyrimidin-4-one]
